In patent US12674139B2, “Serum-free medium not containing albumin and suited for culturing human hematopoietic stem cells, and albumin-free culturing method” (The University of Tokyo, priority 2019, dated 2026):
Non-standard residues stand in square brackets, D forms with d. No end group written: not given here. pY = N[C@@H](Cc1ccc(OP(=O)(O)O)cc1)C(=O)O

How the values were obtained:
[1] = test system: Mpl32D cells; assay: Culture with TPO receptor agonists as TPO replacements, with albumin or PVA; type: cell-based, human; conditions: 0.1 μM butyzamide, 3 μg/mL eltrombopag, 3 μM avatrombopag
Method: Subsequently, whether or not TPO can be replaced with a TPO receptor agonist in culture of human hematopoietic stem cells was examined. Butyzamide, eltrombopag, and avatrombopag are known as TPO receptor agonists. Human hematopoietic stem cells were cultured in the presence of 0.1% recombinant human serum albumin (Albumin Biosciences) or in the presence of PVA in the above-mentioned culture medium having a composition from which TPO was removed and to which 0.1 μM butyzamide, 3 μg/mL eltrombopag, or 3 μM avatrombopag was added. In this experiment, Mpl32D cells were used as human hematopoietic stem cells.

[2] = test system: human CD34+ cells; assay: Colony assay in MethoCult H4415 medium with Giemsa staining; type: cell-based; conditions: cells after 7 days culture; 20 μM PI3Ka + 0.1 μM butyzamide versus PI3Ka + TPO
Source text: Subsequently, whether or not SCF and TPO can be replaced with PI3Ka and a TPO receptor agonist in the absence of albumin and in the presence of PVA was examined. In the following example, butyzamide was used as a TPO receptor agonist. Purchased human bone marrow CD34+ cells (distributor name, Lonza; product number 2C-101) or CD34+ cells isolated from given fresh umbilical cord blood using microbeads as described above were used in the culture experiment. […] Two weeks later, colonies were picked up, cytospin specimens were prepared, Giemsa staining was performed, and then the types of colonies were determined under a microscope. The number of GEmM colonies per 50 CD34+ cells was counted, and the percentage increase in the number of colonies compared with before culture was obtained.
Further, 100 CD34+ cells obtained in the culture at […] after the start of culture were seeded each on a MethoCult™ H4415 medium, and a colony assay was performed. […] Then, after Giemsa staining was performed for the specimens, the types of colonies were determined under a microscope.

[3] = test system: human CD34+ cells; assay: Culture of human bone marrow or umbilical cord blood CD34+ cells in PVA medium, proliferation rate by cell count and flow cytometry; conditions: for ratio of number of cells at day 7 relative to first day of culture: TPO replaced with TPO receptor agonist; for proliferation rate of total cells and CD34+ cells relative to start of culture: neither SCF nor TPO, 20 μM PI3Ka, 0.1 μM TPOago or both
Source text: The cells were dispensed to a 24-well plate at 0.2 to 1.0×10^5 cells per well, TPO was removed from a culture medium for human hematopoietic stem cells and replaced with any of the above-mentioned TPO receptor agonists (hereinafter, may be referred to as “TPOago”) to perform the experiment. The ratio of the number of cells at day 7 of culture relative to the first day of culture was obtained.
Subsequently, whether or not SCF and TPO can be replaced with PI3Ka and a TPO receptor agonist in the absence of albumin and in the presence of PVA was examined. In the following example, butyzamide was used as a TPO receptor agonist. […] Seven days later, the number of total cells was obtained, and the number of CD34+ cells was obtained by flow cytometry. Then, the proliferation rate compared with the start of culture was obtained.
Further, subsequently, a culture experiment of human hematopoietic stem cells was performed in a culture medium comprising neither SCF nor TPO to which 20 μM PI3Ka or 0.1 μM TPOago or both were added.
Further, subsequently, which cell population easily proliferated in a medium in which SCF and TPO were replaced with PI3Ka and TPOago was examined. CD34^+ cells isolated from given fresh umbilical cord blood using microbeads as described above were used in the culture experiment.
The cells were dispensed to a 24-well plate at 0.2×10^5 to 1.0×10^5 cells per well, and CD34^+ cells were cultured in the prepared media.

[4] = test system: human hematopoietic stem cells (CD34+CD38− cells); assay: Proliferation of human hematopoietic stem cells in albumin-free serum-free PVA medium; type: cell-based; conditions: no albumin
Method: In this example, an assay was performed in which mouse hematopoietic stem cells (KSL cells) and human hematopoietic stem cells (CD34^+CD38^− cells) were allowed to proliferate in a culture medium not comprising albumin. The culture medium was a serum-free medium comprising polyvinyl alcohol (PVA) and not comprising albumin, as described in Wilkinson et al., Nature, 571:117-121, 2019.
Specifically, the culture medium used for culture of mouse hematopoietic stem cells was an F12 medium comprising 1% insulin-transferrin-selenium-ethanolamine (ITSX), 10 mM HEPES, 1% penicillin-streptomycin-glutamine, 100 ng/mL mouse thrombopoietin (mTPO), and 10 ng/mL mouse stem cell factor (mSCF). The medium comprised PVA at the final concentration of 0.1%. The culture medium used for culture of human hematopoietic stem cells was an IMDM medium comprising 1% insulin-transferrin-selenium-ethanolamine (ITSX), 25 mM HEPES, 1% penicillin-streptomycin-glutamine, 100 ng/mL human thrombopoietin (hTPO), and 10 ng/mL human stem cell factor (hSCF). The medium comprised PVA at the final concentration of 0.1%.
Unless otherwise specified, all media used in the following examples were an IMDM medium comprising 1% insulin-transferrin-selenium-ethanolamine (ITSX), 25 mM HEPES, 1% penicillin-streptomycin-glutamine, and PVA (hereinafter, also referred to as “common medium”). Therefore, hereinafter, description of the medium will be focused on components added to the common medium. For example, given that the above-mentioned medium comprises TPO and SCF in addition to the common medium, it is to be referred to as a TPO+SCF medium for the purpose of convenience. […]
Accordingly, human hematopoietic stem cells were cultured in a culture medium comprising 0.3 μM AKTa (name of distributer, Sigma-Aldrich; product number 123871) or 20 μM PI3Ka. Cells were counted after 3 days, 5 days, and 7 days of culture, and the ratios of the number of cells at each time point to the number of cells on the first day of culture, which was standardized as 1, were obtained. […]

[5] = 0.1% recombinant human serum albumin, no TPO
[6] = day 7, 20 μM PI3Ka + TPO 100 ng/mL

Molecule: CCCOC(c1cccc(-c2csc(NC(=O)c3cc(Cl)c(C=C(C)C(=O)O)c(Cl)c3)n2)c1OC)C(C)(C)C (centres unmarked) [butyzamide, 3-[4-[[[4-[2-methoxy-3-(1-tert-butyl-2-oxapentan-1-yl)phenyl]thiazol-2-yl]amino]carbonyl]-2,6-dichlorophenyl]-2-methylpropenoic acid]
- proliferation (change with time in number of cells) [1, 5]: could support proliferation
- proliferation (change with time in number of cells) ([1]; PVA, no albumin): marked proliferative effect
- GEmM colony forming ability (number of GEmM colonies per 50 CD34+ cells) [2]: could completely replace TPO
- ratio of number of cells at day 7 relative to first day of culture ([3]; PVA, no albumin): significantly proliferated
- proliferation rate of total cells and CD34+ cells compared with start of culture ([3]; day 7, 20 μM PI3Ka + 0.1 μM butyzamide versus 20 μM PI3Ka + TPO 100, PVA, no albumin, no SCF): could completely replace TPO
- proliferation rate of total cells and CD34+ cells relative to start of culture ([3]; day 7, PVA, no albumin): increases of cells were not observed

Molecule: CC(C)n1cnc2c(NCCc3ccc(O)cc3)nc(-c3csc4ccccc34)nc21 [SR-1]
- proliferation rate of total cells relative to before start of culture ([3]; day 14, added to 20 μM PI3Ka + 0.1 μM TPOago, SR-1 500 nM, UM171 35 nM): killed cells

Molecule: O=C(Nc1nc(-c2cc(Cl)cs2)c(N2CCN(C3CCCCC3)CC2)s1)c1cnc(N2CCC(C(=O)O)CC2)c(Cl)c1 [avatrombopag]
- proliferation (change with time in number of cells) [1, 5]: could support proliferation
- proliferation (change with time in number of cells) ([1]; PVA, no albumin): low effect
- ratio of number of cells at day 7 relative to first day of culture ([3]; PVA, no albumin): Death of hematopoietic stem cells occurred

Molecule: PI3Ka: peptide of amino acid sequence RQIKIWFQNRRMKWKKSDGGYMDMS in which Y is phosphorylated; Tocris product number 1983 (RQIKIWFQNRRMKWKKSDGG[pY]MDMS)
- proliferation rate of total cells and CD34+ cells relative to start of culture ([3]; day 7, PVA, no albumin): increases of cells were not observed
- ratio of number of cells to first day of culture ([4]; 3, 5, 7 days, SCF 10 ng/mL + TPO 100 ng/mL, 0.3 μM AKTa or 20 μM PI3Ka): clearly proliferated
- number of CD34+ cells, with SCF versus without SCF [4, 6]: no significant difference
- number of total cells, with SCF versus without SCF [4, 6]: no significant difference
